Source: publication PMC6979384, “Characterization of the plant homeodomain (PHD) reader family for their histone tail interactions” (Epigenetics & Chromatin, 2020)

What was measured:
Assay in all cases: Histone peptide microarray
Format in all cases: binding, human
ING2 = conditions: GST-tagged ING2; sheet Array Heatmap; each array performed twice, total n = 4
Procedure, shortened: (§1)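 Each reader, produced as a GST fusion and purified, was tested at 0.5 μM on synthetic histone peptides (293 in total) carrying single or combinatorial marks. Intensities averaged over four replicates.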

ING1 = conditions: GST-tagged ING1; sheet Array Heatmap; each array performed twice, total n = 4
Procedure, shortened: as §1

KDM5B (1) = conditions: GST-tagged KDM5B (1); sheet Array Heatmap; each array performed twice, total n = 4
Procedure, shortened: as §1

RAG2 = conditions: GST-tagged RAG2; sheet Array Heatmap; each array performed twice, total n = 4
Procedure, shortened: as §1

ING5 = conditions: GST-tagged ING5; sheet Array Heatmap; each array performed twice, total n = 4
Procedure, shortened: as §1

PHF21A = conditions: GST-tagged PHF21A; sheet Array Heatmap; each array performed twice, total n = 4
Procedure, shortened: as §1

MORC3 (CW) = conditions: GST-tagged MORC3 (CW = CW-type Zn-finger); sheet Array Heatmap; each array performed twice, total n = 4
Procedure, shortened: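 GST-tagged PHD readers, 0.5 μM, probed on a microarray of 293 synthetic histone peptides carrying single or combinatorial PTMs (optimized Petell protocol). Signals are averaged over 4 replicates and expressed as relative binding.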

KDM5A (1) = conditions: GST-tagged KDM5A (1); sheet Array Heatmap; each array performed twice, total n = 4
Procedure, shortened: as §1

CHD5 (PPCC) = conditions: GST-tagged CHD5 (PPCC = Dual PHD + Dual Chromodomain); sheet Array Heatmap; each array performed twice, total n = 4
Procedure, shortened: as §1

TRIM66 (PB) = conditions: GST-tagged TRIM66 (PB = PHD + Bromodomain); sheet Array Heatmap; each array performed twice, total n = 4
Procedure, shortened: as §1

TAF3 = conditions: GST-tagged TAF3; sheet Array Heatmap; each array performed twice, total n = 4
Procedure, shortened: as §1

PHF8 = conditions: GST-tagged PHF8; sheet Array Heatmap; each array performed twice, total n = 4
Procedure, shortened: as §1

PHF13 = conditions: GST-tagged PHF13; sheet Array Heatmap; each array performed twice, total n = 4
Procedure, shortened: as §1

DPF2 (PPC2W2) = conditions: GST-tagged DPF2 (PPC2W2 = Dual PHD + C2W2-type Zn-finger); sheet Array Heatmap; each array performed twice, total n = 4
Procedure, shortened: as §1

ING3 = conditions: GST-tagged ING3; sheet Array Heatmap; each array performed twice, total n = 4
Procedure, shortened: as §1

ING4 = conditions: GST-tagged ING4; sheet Array Heatmap; each array performed twice, total n = 4
Procedure, shortened: as §1

PHF2 = conditions: GST-tagged PHF2; sheet Array Heatmap; each array performed twice, total n = 4
Procedure, shortened: as §1

AIRE (PP) = conditions: GST-tagged AIRE (PP); sheet Array Heatmap; each array performed twice, total n = 4
Procedure, shortened: as §1

BAZ2B = conditions: GST-tagged BAZ2B; sheet Array Heatmap; each array performed twice, total n = 4
Procedure, shortened: as §1

CHD5 (PCC) = conditions: GST-tagged CHD5 (PCC = PHD + Dual Chromodomain); sheet Array Heatmap; each array performed twice, total n = 4
Procedure, shortened: as §1

BPTF (PB) = conditions: GST-tagged BPTF (PB = PHD + Bromodomain); sheet Array Heatmap; each array performed twice, total n = 4
Procedure, shortened: as §1

KDM4C (TTP) = conditions: GST-tagged KDM4C (TTP = Tandem Tudor domain + PHD); sheet Array Heatmap; each array performed twice, total n = 4
Procedure, shortened: as §1

KDM5A (3) = conditions: GST-tagged KDM5A (3); sheet Array Heatmap; each array performed twice, total n = 4
Procedure, shortened: as §1

KDM7A = conditions: GST-tagged KDM7A; sheet Array Heatmap; each array performed twice, total n = 4
Procedure, shortened: as §1

SP140L = conditions: GST-tagged SP140L; sheet Array Heatmap; each array performed twice, total n = 4
Procedure, shortened: as §1

PHRF1 (RP) = conditions: GST-tagged PHRF1 (RP); sheet Array Heatmap; each array performed twice, total n = 4
Procedure, shortened: as §1

MLL5 = conditions: GST-tagged MLL5; sheet Array Heatmap; each array performed twice, total n = 4
Procedure, shortened: as §1

KDM5B (3) = conditions: GST-tagged KDM5B (3); sheet Array Heatmap; each array performed twice, total n = 4
Procedure, shortened: as §1

CHD4 (PPCC) = conditions: GST-tagged CHD4 (PPCC = Dual PHD + Dual Chromodomain); sheet Array Heatmap; each array performed twice, total n = 4
Procedure, shortened: as §1

DIDO1 = conditions: GST-tagged DIDO1; sheet Array Heatmap; each array performed twice, total n = 4
Procedure, shortened: as §1

PHF23 = conditions: GST-tagged PHF23; sheet Array Heatmap; each array performed twice, total n = 4
Procedure, shortened: as §1

Substance | Array Heatmap signal (histone peptide microarray) (ING2) | Array Heatmap signal (histone peptide microarray) (ING1) | Array Heatmap signal (histone peptide microarray) (KDM5B (1)) | Array Heatmap signal (histone peptide microarray) (RAG2) | Array Heatmap signal (histone peptide microarray) (ING5) | Array Heatmap signal (histone peptide microarray) (PHF21A) | Array Heatmap signal (histone peptide microarray) (MORC3 (CW)) | Array Heatmap signal (histone peptide microarray) (KDM5A (1)) | Array Heatmap signal (histone peptide microarray) (CHD5 (PPCC)) | Array Heatmap signal (histone peptide microarray) (TRIM66 (PB)) | Array Heatmap signal (histone peptide microarray) (TAF3) | Array Heatmap signal (histone peptide microarray) (PHF8) | Array Heatmap signal (histone peptide microarray) (PHF13) | Array Heatmap signal (histone peptide microarray) (DPF2 (PPC2W2)) | Array Heatmap signal (histone peptide microarray) (ING3) | Array Heatmap signal (histone peptide microarray) (ING4) | Array Heatmap signal (histone peptide microarray) (PHF2) | Array Heatmap signal (histone peptide microarray) (AIRE (PP)) | Array Heatmap signal (histone peptide microarray) (BAZ2B) | Array Heatmap signal (histone peptide microarray) (CHD5 (PCC)) | also measured
H3K4ac + K9ac + S10p + K14ac + K18ac: H3 1-20 | 0.5779 | 0.5313 | 0.6478 | 0.2541 | 0.3888 | 0.4919 | 0.3767 | 0.5046 | 0.5941 | 0.6786 | 0.2701 | 0.3899 | 0.6482 | 0.6938 | 0.4823 | 0.4935 | 0.4731 | 0.5295 | 0.5889 | 0.8446 | Array Heatmap signal (histone peptide microarray) (BPTF (PB)): 0.3689; Array Heatmap signal (histone peptide microarray) (KDM4C (TTP)): 0.5421; Array Heatmap signal (histone peptide microarray) (KDM5A (3)): 0.4188; Array Heatmap signal (histone peptide microarray) (KDM7A): 0.4698; Array Heatmap signal (histone peptide microarray) (SP140L): 0.3597; Array Heatmap signal (histone peptide microarray) (PHRF1 (RP)): 0.429; Array Heatmap signal (histone peptide microarray) (MLL5): 0.555; Array Heatmap signal (histone peptide microarray) (KDM5B (3)): 0.4819; Array Heatmap signal (histone peptide microarray) (CHD4 (PPCC)): 0.5822; Array Heatmap signal (histone peptide microarray) (DIDO1): 0.6753; Array Heatmap signal (histone peptide microarray) (PHF23): 0.5331
H3K4ac + K9ac: H3 1-20 | 0.6174 | 0.5202 | 0.6807 | 0.2758 | 0.3535 | 0.4614 | 0.3754 | 0.4969 | 0.5625 | 0.6641 | 0.3083 | 0.3733 | 0.5976 | 0.6975 | 0.4596 | 0.4565 | 0.54 | 0.5254 | 0.5296 | 0.8893 | Array Heatmap signal (histone peptide microarray) (BPTF (PB)): 0.3822; Array Heatmap signal (histone peptide microarray) (KDM4C (TTP)): 0.5223; Array Heatmap signal (histone peptide microarray) (KDM5A (3)): 0.5679; Array Heatmap signal (histone peptide microarray) (KDM7A): 0.4244; Array Heatmap signal (histone peptide microarray) (SP140L): 0.3499; Array Heatmap signal (histone peptide microarray) (PHRF1 (RP)): 0.6615; Array Heatmap signal (histone peptide microarray) (MLL5): 0.5339; Array Heatmap signal (histone peptide microarray) (KDM5B (3)): 0.6207; Array Heatmap signal (histone peptide microarray) (CHD4 (PPCC)): 0.558; Array Heatmap signal (histone peptide microarray) (DIDO1): 0.6345; Array Heatmap signal (histone peptide microarray) (PHF23): 0.5225
